# According to US20250090996A1, “ACID GAS REMOVAL METHOD, ACID GAS ABSORBENT, AND ACID GAS REMOVAL APPARATUS” (KABUSHIKI KAISHA TOSHIBA, priority 2023, published 2025):
# Columns and labels:
# [1] = Amount of compound dissolved in water (total organic carbon of lower aqueous phase); type: physicochemical; details: 25° C., atmospheric pressure, converted from total organic carbon of lower phase
# Text: An acid gas absorbent according to the embodiment contains an amine compound and water, as main agents for absorbing an acid gas. The amine compound used here is a liquid amine compound having a secondary amine structure. An acid gas remover contains a mixture of the liquid amine compound and water, and an amount of a salt to be dissolved in water is larger than an amount of the liquid amine compound itself to be dissolved in water, the salt being formed from the liquid amine compound and the acid gas. Here, the liquid amine compound is an amine compound that is liquid at 25° C. under atmospheric pressure. An amount of the liquid amine compound to be dissolved at room temperature is generally small, and, for example, an amount of the liquid amine compound to be dissolved in water at 25° C. is 50,000 mg/L or less. Upon contact of the liquid amine compound with the acid gas, a salt is formed, and is ionized when water coexists, to increase the dissolved amount. The amount of such a salt to be dissolved is, for example, 2 times or more, preferably 5 times or more, and more preferably 10 times or more the amount of the liquid amine to be dissolved as a base at 25° C. In the present embodiment, the dissolved amount (mg/L) is a mass (mg) of the liquid amine based on a total volume (L) of water and the liquid amine compound.
# (§1) When a compound (a-1) of General Formula (a) wherein R^1 and R^3 are 1-ethylpropyl groups and R^2 is C3 linear alkyl and water were blended at a mass ratio of 50:50, two phases of an organic phase (amine compound phase) as an upper phase and an aqueous phase as a lower phase were formed. […] The temperature in the column was changed in a range of 60° C. to 70° C., and an inert gas was caused to flow at 50 ml/min. […] Here, the amount of carbon dioxide saturated and absorbed is a value obtained by measuring the amount of inorganic carbon in the acid gas absorbent with an infrared gas concentration measuring apparatus. The amount of this compound dissolved was 18,000 mg/L at 25° C. and under atmospheric pressure. The amount of the compound dissolved was determined by sampling the lower phase of the two phases fractionated, measuring the total organic carbon concentration with a total organic carbon meter TOC-L (trade name) manufactured by Shimadzu Corporation, and converting it into the amount of amine dissolved from the chemical formula of the compound (a-1).
# [2] = Phase state of amine/water mixture before and after carbon dioxide absorption; type: physicochemical; details: for phase state after absorbing carbon dioxide: mixture with water 50:50 after CO2:N2=1:9 bubbling; for phase state when blended with water: ratio 50:50, before carbon dioxide absorption, organic upper phase, aqueous lower phase
# Text: Here, in the present embodiment, the “state in which the organic phase and the aqueous phase are phase-separated” means that, for example, a mixture of water and a liquid amine has a relationship in which a state in which the organic phase and the aqueous phase are phase-separated, in other words, a boundary between the organic phase and the aqueous phase can be visually confirmed. Here, in the present embodiment, the organic phase is a phase containing the liquid amine compound as a main component in a state of being phase-separated, and is also a phase containing a high concentration of the liquid amine compound in a state of being separated from the acid gas. The aqueous phase is a phase containing water as a main component in a state of being phase-separated. At a high carbon dioxide concentration, the acid gas absorbent has an increased amount of the liquid amine compound to be dissolved in water, and the liquid amine compound is dissolved in an aqueous solution. In the acid gas absorbent, the organic phase and the aqueous phase are not phase-separated in this state (the acid gas absorbent has one phase). At a low acid gas concentration, the acid gas absorbent is decreased in solubility of the liquid amine compound in water, and is phase-separated into an aqueous phase and an organic phase containing a high concentration of the liquid amine compound. When the acid gas absorbent is phase-separated, the organic phase and the aqueous phase typically form complete two phases. However, in the present embodiment, even when it is not completely phase-separated, the organic phase and the aqueous phase are referred to as “two phases” in a case where a boundary between the phases can be confirmed.
# Hereinafter, Examples of the embodiment will be described. In the following Examples, conditions before heating the acid gas absorbent were 25° C. and atmospheric pressure.
# as §1
# [3] = Regeneration (carbon dioxide release) on heated molecular sieve 4A column; details: column 60° C. to 70° C., inert gas 50 ml/min, fractionated
# Description: as §1
# [4] = S concentration of aqueous phase after adding sulfuric acid (ICP); type: physicochemical; details: 1 ml of 1 mol/l sulfuric acid added to 30 ml of mixture with water (volume ratio 50:50), after stirring
# Description: When the compound (a-1) and water were blended at a volume ratio of 50:50, two phases of an organic phase as an upper phase and an aqueous phase as a lower phase were formed. One (1) ml of 1 mol/1 sulfuric acid was added to 30 ml of the mixture, and, after stirring, the S concentration of the aqueous phase was measured by ICP. As a result, the S concentration was 17.6 mg-S/L (Reference Example 1).
# [5] = Phase state of amine/water mixture before and after carbon dioxide absorption; type: physicochemical; details: volume ratio 50:50
SMILES,amount of compound dissolved [1],phase state after absorbing carbon dioxide [2],phase state when blended with water [2],phase state of mixture after passing through column [3],S concentration of the aqueous phase [4] [mg-S/L],phase state when blended with water [5]
CCC(CC)NCCCN(C)CCCNC(CC)CC [compound (b-1)],"22,000 mg/L",formed one phase,two phases,two phases were formed,,
CC(C)CC(C)NCCCNCCCNC(C)CC(C)C (stereo not shown) [compound (b-3)],"11,000 mg/L",formed one phase,two phases,two phases were formed,,
CCC(CC)NCCCNC(CC)CC [compound (a-1)],"18,000 mg/L",formed one phase,two phases,two phases were formed,17.6,two phases

# Second part, the molecule after the results:
amount of compound dissolved [1],phase state after absorbing carbon dioxide [2],phase state when blended with water [2],phase state of mixture after passing through column [3],S concentration of the aqueous phase [4] [mg-S/L],phase state when blended with water [5],SMILES
"4,000 mg/L",formed one phase,two phases,two phases were formed,,,CC(C)CC(C)NCCCN(C)CCCNC(C)CC(C)C (stereo not shown) [compound (b-2)]
,,two phases,,,,"CC(C)N(C)C(C)C [diisopropylmethylamine, reference compound]"
